The record followed here is patent publication US20150087627A1, “COMBINATION OF KINASE INHIBITORS AND USES THEREOF” (Intellikine LLC, priority 2011, published 2015).

The term TGI denotes how far tumour growth fell short of that in controls.

The subject of assay [1] is 786-0 cells, a human kidney carcinoma cell line having a non-mutated PI3Kα. Description: In vivo efficacy in 786-0 kidney carcinoma xenograft. The arrangement: species or system mice. The settings on record: FIG. 6. On the procedure: Compound A was administered orally at 60 and 120 mg/kg and compound A was administered orally as a solution at 1 mg/kg (QD). For example, a PI3Kα inhibitor is compared to a kinase inhibitor with specificity for mTor. […] FIG. 6C also provides biochemical potency data for the two compared inhibitors. PI3 Kinase α, β, γ and δ activity was assayed using the PI3 Kinase HTRF® assay kit (Millipore Corporation). Purified recombinant PI3Kα, PI3Kβ, PI3Kγ and PI3Kδ were obtained from Millipore Corporation. […] Emission ratios were converted into percent inhibitions and imported into GraphPad Prism software. […] IC50 values were determined using a nonlinear regression model available in GraphPad Prism 5.

The subject of assay [2] is HCC70 human breast cancer xenografts. Kind of assay: Antitumor activity, multiple dosing schedules, HCC70 xenografts (Example 43). In kind it is in vivo, Mus musculus. The settings on record: Day 35. On the procedure:
Compound A was prepared in 5% NMP+95% PEG400 every 5-7 days and stored at approximately 25° C., shielded from light. The control article used in this study was 5% NMP+95% PEG400. Compounds were completely dissolved in NMP by sonication followed by the addition of the appropriate volume of PEG400. The solution was vortexed and sonicated again to ensure complete mixing.
Low passage HCC70 cells (ATCC) were grown in RPMI (Life Technologies) supplemented with 10% Fetal Bovine Serum (FBS) (PAA Laboratories Pty Ltd) and 1× penicillin-streptomycin (Life Technologies) and supplied at a concentration of 5.0×10^7 cells/mL in serum-free RPMI and 50% Matrigel (BD Biosciences). HCC70 cells (5.0×10^6 cells/animal, 0.1-mL injection volume) were implanted subcutaneously (SC) into flank of female athymic nude mice. The animals used in this study are described in the following table.
Five-week old female athymic nude mice were inoculated SC in flank (cell suspension in serum free RPMI and 50% Matrigel) with 5.0×10^6 HCC70 cells. Tumor growth was monitored with vernier calipers. The mean TV (MTV) was calculated using the formula V=W^2×L/2. When the MTV reached approximately 160 to 180 mm^3, the animals were randomized into 13 treatment groups (n=5/group). […] Tumor growth and body weight were measured twice per week. Percent TGI and body weight change were calculated on Day 35. Treatment started on Day 0 for 28 days. Antitumor activity was determined by calculating the percent TGI using Equation 1: Percent TGI=(mean tumor volume [MTV] of the control group−MTV of a treated group)/MTV of the control group×100.
The differences in the tumor growth trends over time between pairs of treatment groups were assessed using linear mixed effects regression models. These models account for the fact that each animal was measured at multiple time points. A separate model was fit for each comparison, and the area under the curve (AUC) values for each treatment group were calculated using the predicted values from the model. The percent decrease in AUC (ΔAUC) relative to the reference group was then calculated.
Drug combinations were assessed for synergy using observed AUC values. The change in AUC relative to the control was calculated for both single agent treatment groups as well as the combination group. The interaction between the two compounds was then assessed by comparing the change in AUC observed in the combination group to the sum of the changes observed in both single agents. The results can be divided into four categories: synergistic, additive, sub-additive, and antagonistic. Further details regarding combination analyses are provided in the appendix. All p values less than 0.05 were considered significant.

The subject of a further assay is pAKT in PC3 cells. Kind of assay: Inhibition of PI3K pathway, pAKT Western blot. It is filed as cell-based, human. The settings on record: PC3 model, FIG. 7. The procedure:
Cells comprising one or more mutations in PI3Kα, including but not limited to breast cancer cells (e.g., MDA-MB-361, T47D, SKOV-3), and cells comprising one or more mutations in PTEN including but not limited to prostate cancer cells (e.g., PC3), are typically grown in cell growth media such as DMEM supplemented with fetal bovine serum and/or antibiotics, and grown to confluency. Cells are then treated with various concentrations of test compound for about 2 hours and subsequently lysed in cell lysis buffer. Lysates are subjected to SDS-PAGE followed by Western blot analysis to detect downstream signaling markers, including but not limited to pAKT(S473), pAKT(T308), pS6, and p4E-BP1.
In general terms: A western blot detects proteins with antibodies after separation by electrophoresis.

Assay [3] concerns mTORC1-dependent NRDG1 phosphorylation. Description: Western blot of NRDG1 phosphorylation (FIG. 5B). In kind it is cell-based.

With `Nc1nc2cc(-c3ccc4ncc(C(=O)N5CCOCC5)n4c3)ccc2o1` [Compound A], the “anti-tumor activity in 786-0 model” value in assay [1] (orally at 60 and 120 mg/kg, compared to MDA derived tumors) is listed as “decreased activity”. Moreover, the TGI in assay [2] (70 mg/kg QD 3on/4off PO, not significantly different from control) is 19.4%; in assay [2] (140 mg/kg QD 3on/4off PO), 41.0%; in assay [2] (210 mg/kg QW PO, not significantly different from control), 21.0%; in assay [2] (420 mg/kg QW PO), 40.8%.
In the case of `CC(C)n1nc(-c2ccc3oc(N)nc3c2)c2c(N)ncnc21` [Compound B], the “inhibition of Akt phosphorylation, serine 473 vs threonine 308” value with pAKT in PC3 cells is recorded as “differential inhibition of Akt phosphorylation at serine 473 over threonine 308”. The “sensitivity of mTORC1-dependent NRDG1 phosphorylation” value in assay [3] is “sensitivity”. In assay [1] (orally as a solution at 1 mg/kg (QD)), the “inhibition of kinase activity and tumor growth in 786-0 model” value is given as “effective”. Further, the TGI in assay [2] (0.3 mg/kg QD PO) stood at 36.9%; in assay [2] (1.0 mg/kg QD 3on/4off PO) it was 47.2%; in assay [2] (3.0 mg/kg QW PO), 35.8%.
